Data reported in US10383880B2 (Reset Therapeutics, Inc., priority 2012, dated 2019).

Tested on: Per2-dLuc U2OS reporter cells
Test: Per2 assay for evaluating the potency of test compounds (high-throughput circadian assay)
Type: cell-based
Conditions: Homo sapiens, U2OS, stable U2OS reporter cells harboring Per2-dLuc; luminescence monitored over 4-5 days at 35° C.
How it was run: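 After 24 h culture, U2OS cells carrying Per2-dLuc were serum-shock synchronized into explant medium with 1.0 mM luciferin (10 mM HEPES pH 7.0) and compound in 0.5% DMSO. Luminescence was recorded over 4–5 days at 35 °C. Circadian period, amplitude and phase were derived, and EC50 calculated.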

Row | Compound | EC50
1 | CC(C)N(CC(O)Cn1c2ccc(F)cc2c2ccc(F)cc21)S(C)(=O)=O (centres unmarked) [Compound 165, N-(3-(2,6-Difluoro-9H-carbazol-9-yl)-2-hydroxypropyl)-N-isopropylmethanesulfonamide] | 95 nM
2 | CS(=O)(=O)N(Cc1cccc(F)c1)CC(O)Cn1c2ccccc2c2ccccc21 (centres unmarked) [Compound 67, N-(3-(9H-Carbazol-9-yl)-2-hydroxypropyl)-N-(3-fluorobenzyl)methanesulfonamide] | 3140 nM
3 | CCCN(CC(O)Cn1c2ccc(F)cc2c2cc(F)ccc21)S(C)(=O)=O (centres unmarked) [Compound 153, N-(3-(3,6-Difluoro-9H-carbazol-9-yl)-2-hydroxypropyl)-N-propylmethanesulfonamide] | 396 nM
4 | CC(O)(CN1CCCS1(=O)=O)Cn1c2ccc(F)cc2c2cc(F)ccc21 (centres unmarked) [Compound 115, 2-(3-(3,6-Difluoro-9H-carbazol-9-yl)-2-hydroxy-2-methylpropyl)-isothiazolidine-1,1-dioxide] | 232 nM
5 | CC1CCCC1N(CC(C)(O)Cn1c2ccc(F)cc2c2cc(F)ccc21)S(C)(=O)=O (centres unmarked) [Compound 192, N-(3-(3,6-Difluoro-9H-carbazol-9-yl)-2-hydroxy-2-methylpropyl)-N-(2-methylcyclopentyl)methanesulfonamide] | 686 nM
6 | O=S1(=O)CCc2ccccc2N1CC(O)Cn1c2ccccc2c2ccccc21 (centres unmarked) [Compound 37, N-(3-(9H-Carbazol-9-yl)-2-hydroxypropyl)-3,4-dihydro-1H-benzo[c][1,2]thiazine 2,2-dioxide] | 34 nM
7 | O=S(=O)(C1CCCCC1)N(Cc1ccco1)CC(O)Cn1c2ccccc2c2ccccc21 (centres unmarked) [Compound 84, N-(3-(9H-Carbazol-9-yl)-2-hydroxypropyl)-N-(furan-2-ylmethyl)cyclohexanesulfonamide] | 892 nM
8 | CCN1CCN(CC(O)Cn2c3ccc(F)cc3c3cc(F)ccc32)S1(=O)=O (centres unmarked) [Compound 216] | 150 nM
9 | CN1CCCN(CC(O)Cn2c3ccccc3c3ccccc32)S1(=O)=O (centres unmarked) [Compound 124, 2-(3-(9H-Carbazol-9-yl)-2-hydroxypropyl)-6-methyl-1,2,6-thiadiazinane-1,1-dioxide] | 154 nM
10 | CC(=O)Nc1ccc(N(CC(O)Cn2c3ccccc3c3ccccc32)S(C)(=O)=O)cc1 (centres unmarked) [Compound 29, N-(4-(N-(3-(9H-Carbazol-9-yl)-2-hydroxypropyl)methylsulfonamido)phenyl)acetamide] | 710 nM
11 | CC1(N(CC(O)Cn2c3ccccc3c3ccccc32)S(C)(=O)=O)CCCC1 (centres unmarked) [Compound 143, N-(3-(9H-Carbazol-9-yl)-2-hydroxypropyl)-N-(1-methylcyclopentyl)methanesulfonamide] | 28 nM
12 | CC(C)N1CCN(CC(C)(O)Cn2c3ccc(F)cc3c3cc(F)ccc32)S1(=O)=O (centres unmarked) [Compound 225] | 3090 nM
13 | COC(=O)N1CCCC(N(CC(O)Cn2c3ccccc3c3ccccc32)S(C)(=O)=O)C1 (centres unmarked) [Compound 130, Methyl 3-(N-(3-(9H-carbazol-9-yl)-2-hydroxypropyl)methylsulfonamido)piperidine-1-carboxylate] | 636 nM
14 | CS(=O)(=O)N(CC(O)Cn1c2ccccc2c2ccccc21)c1ccc2[nH]ccc2c1 (centres unmarked) [Compound 76, N-(3-(9H-Carbazol-9-yl)-2-hydroxypropyl)-N-(1H-indol-5-yl)methanesulfonamide] | 2180 nM
15 | CS(=O)(=O)N(CC(O)Cn1c2ccc(F)cc2c2cc(F)ccc21)c1ccc(-c2cc[nH]n2)cc1 (centres unmarked) [Compound 214, N-(4-(1H-Pyrazol-3-yl)phenyl)-N-(3-(3,6-difluoro-9H-carbazol-9-yl)-2-hydroxypropyl)methanesulfonamide] | 6560 nM
16 | CS(=O)(=O)N(CC(O)Cn1c2ccc(F)cc2c2cc(F)ccc21)C1CC1 (centres unmarked) [Compound 118, N-Cyclopropyl-N-(3-(3,6-difluoro-9H-carbazol-9-yl)-2-hydroxypropyl)methanesulfonamide] | 81 nM

Row | Compound | EC50
17 | O=S1(=O)CCCN1CC(O)Cn1c2ccccc2c2ccccc21 (centres unmarked) [Compound 20, N-(3-(9H-Carbazol-9-yl)-2-hydroxypropyl)isothiazolidine 1,1-dioxide] | 29 nM
18 | O=S(=O)(CC(F)(F)F)N(Cc1ccco1)CC(O)Cn1c2ccccc2c2ccccc21 (centres unmarked) [Compound 7, N-(3-(9H-Carbazol-9-yl)-2-hydroxypropyl)-2,2,2-trifluoro-N-(furan-2-ylmethyl)ethanesulfonamide] | 2100 nM
19 | CS(=O)(=O)N(CC(O)Cn1c2ccccc2c2ccccc21)C1CCCc2ccccc21 (centres unmarked) [Compound 47, N-(3-(9H-Carbazol-9-yl)-2-hydroxypropyl)-N-(1,2,3,4-tetrahydronaphthalen-1-yl)methanesulfonamide] | 3360 nM
20 | CCCN(CC(O)Cn1c2ccc(F)cc2c2ccc(F)cc21)S(C)(=O)=O (centres unmarked) [Compound 163, N-(3-(2,6-Difluoro-9H-carbazol-9-yl)-2-hydroxypropyl)-N-propylmethanesulfonamide] | 206 nM
21 | CS(=O)(=O)N(CC(O)Cn1c2ccc(F)cc2c2cc(F)ccc21)c1ccc(OC2CC2)cc1 (centres unmarked) [Compound 212, N-(4-Cyclopropoxyphenyl)-N-(3-(3,6-difluoro-9H-carbazol-9-yl)-2-hydroxypropyl)methanesulfonamide] | 1800 nM
22 | CS(=O)(=O)N(CC(O)Cn1c2ccccc2c2ccccc21)c1ccon1 (centres unmarked) [Compound 81, N-(3-(9H-Carbazol-9-yl)-2-hydroxypropyl)-N-(isoxazol-3-yl)methanesulfonamide] | 964 nM
23 | CC(O)(CN(c1ccccc1)S(C)(=O)=O)Cn1c2ccc(F)cc2c2cc(F)ccc21 (centres unmarked) [Compound 215, N-(3-(3,6-Difluoro-9H-carbazol-9-yl)-2-hydroxy-2-methylpropyl)-N-phenylmethanesulfonamide] | 7880 nM
24 | CC(C)N(CC(O)Cn1c2ccc(F)cc2c2cc(F)ccc21)S(C)(=O)=O (centres unmarked) [Compound 117, N-(3-(3,6-Difluoro-9H-carbazol-9-yl)-2-hydroxypropyl)-N-isopropylmethanesulfonamide] | 127 nM
25 | CCN(CC(O)Cn1c2ccc(F)cc2c2cc(F)ccc21)S(C)(=O)=O (centres unmarked) [Compound 156, N-(3-(3,6-ifluoro-9H-carbazol-9-yl)-2-hydroxypropyl)-N-ethylmethanesulfonamide] | 471 nM
26 | CC(O)(CN(C1CCC1)S(C)(=O)=O)Cn1c2ccc(F)cc2c2cc(F)ccc21 (centres unmarked) [Compound 149, N-Cyclobutyl-N-(3-(3,6-difluoro-9H-carbazol-9-yl)-2-hydroxy-2-methylpropyl)methanesulfonamide] | 7620 nM
27 | CS(=O)(=O)N(CC(O)Cn1c2ccccc2c2ccccc21)C1(C(F)(F)F)CC1 (centres unmarked) [Compound 145, N-(3-(9H-Carbazol-9-yl)-2-hydroxypropyl)-N-(1-(trifluoromethyl)cyclopropyl)methanesulfonamide] | 1350 nM
28 | CS(=O)(=O)N(CC(O)Cn1c2ccccc2c2ccccc21)c1ccc(Br)cc1 (centres unmarked) [Compound 28, N-(3-(9H-Carbazol-9-yl)-2-hydroxypropyl)-N-(4-bromophenyl)methanesulfonamide] | 2090 nM
29 | CC1(N(CC(O)Cn2c3ccc(F)cc3c3cc(F)ccc32)S(C)(=O)=O)CCC1 (centres unmarked) [Compound 186, N-(3-(3,6-Difluoro-9H-carbazol-9-yl)-2-hydroxypropyl)-N-(1-methylcyclobutyl)methanesulfonamide] | 83 nM
30 | CC(C)(N(CC(O)Cn1c2ccccc2c2ccccc21)S(C)(=O)=O)C(F)(F)F (centres unmarked) [Compound 148, N-(3-(9H-Carbazol-9-yl)-2-hydroxypropyl)-N-(1,1,1-trifluoro-2-methylpropan-2-yl)methanesulfonamide] | 489 nM
31 | CS(=O)(=O)N(Cc1ccco1)CC(O)Cn1c2ccccc2c2cc(F)ccc21 (centres unmarked) [Compound 238, N-(3-(3-Fluoro-9H-carbazol-9-yl)-2-hydroxy-propyl)-N-(furan-2-yl-methyl)methane-sulfonanide] | 535 nM
32 | CS(=O)(=O)N(CC(O)Cn1c2ccc(F)cc2c2ccc(F)cc21)C1CC1 (centres unmarked) [Compound 167, N-Cyclopropyl-N-(3-(2,6-difluoro-9H-carbazol-9-yl)-2-hydroxypropyl)methanesulfonamide] | 267 nM
